Each structure is given as a SMILES string. Structures can show the parent of a compound that is named as a salt.

The target in the first experiment is T1, hNET (Homo sapiens, UniProt P23975).
T1 construct: expressed in transfected cells
T1 sequence (P23975 whole entry): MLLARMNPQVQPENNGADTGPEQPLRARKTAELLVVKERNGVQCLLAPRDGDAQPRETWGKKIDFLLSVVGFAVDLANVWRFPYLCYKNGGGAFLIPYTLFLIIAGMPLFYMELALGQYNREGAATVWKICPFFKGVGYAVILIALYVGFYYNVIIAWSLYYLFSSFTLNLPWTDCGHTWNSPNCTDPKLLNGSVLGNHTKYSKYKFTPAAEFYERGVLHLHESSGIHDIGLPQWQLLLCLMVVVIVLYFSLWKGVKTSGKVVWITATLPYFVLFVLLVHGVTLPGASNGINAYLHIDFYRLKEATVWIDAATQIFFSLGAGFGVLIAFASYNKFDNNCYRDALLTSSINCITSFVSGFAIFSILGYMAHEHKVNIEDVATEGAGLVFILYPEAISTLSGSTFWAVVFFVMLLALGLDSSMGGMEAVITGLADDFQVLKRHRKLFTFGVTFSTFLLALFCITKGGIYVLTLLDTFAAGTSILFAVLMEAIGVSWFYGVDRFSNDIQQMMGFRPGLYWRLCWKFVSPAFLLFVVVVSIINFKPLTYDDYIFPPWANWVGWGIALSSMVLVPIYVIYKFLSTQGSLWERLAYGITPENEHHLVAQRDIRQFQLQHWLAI
Description: Norepinephrine (NE) uptake assay in MDCK-Net6 cells stably transfected with human hNET. The class given is cell-based. The settings on record: 1 μM test compound, [3H]NE uptake, dihydrochloride, 1 µM. The method, boiled down:
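MDCK-Net6 cells preincubated 20 min at 37 °C with compound (1 to 10,000 nM) in HEPES buffer pH 7.4 with pargyline and ascorbate, then 5 min [3H]NE uptake (120 nM final). Lysed cells counted by scintillation; 1 μM desipramine defined minimum uptake; EC50 from logistic fit of pooled data.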
Turning to `CNC1CCN(CC(c2cccc(C(F)(F)F)c2)C2(O)CCCCC2)C1` (stereo in doubt) [Example 223, 1-{2-[(3R)-3-(methylamino)pyrrolidin-1-yl]-1-[3-(trifluoromethyl)phenyl]ethyl}cyclohexanol dihydrochloride], the “% Inhibition @ 1 μM (hNET)” value is reported as 41.2%.

The same experiment, now with this note: MDCK-Net6, 1 μM test compound, [3H]NE uptake.
For the compound `CN(C)[C@H]1CCN(CC(c2ccc(OCc3ccccc3)c(Cl)c2)C2(O)CCCCC2)C1` (stereo partly drawn) [Example 211, 1-{1-[4-(benzyloxy)-3-chlorophenyl]-2-[(3S)-3-(dimethylamino)pyrrolidin-1-yl]ethyl}cyclohexanol dihydrochloride], at 1 µM the inhibition was 95.6%.

With `C[C@@H]1CCC(O)([C@H](CN2CCC(N3CCCCC3)CC2)c2cccc(OC(F)(F)F)c2)C1` (stereo partly drawn) [Example 398, (3R)-1-{2-(1.4′-bipiperidin-1′-yl)-1-[3-(trifluoromethoxy)phenyl]ethyl}-3-methylcyclopentanol dihydrochloride], the inhibition (commonly the percentage by which the read-out fell short of the control) at 1 µM is 0%.

Compound `CC1CCC(O)(C(CN2CCC(N)CC2)c2cccc(Cl)c2)CC1` (stereo not drawn) [Example 330, 1-[2-(4-aminopiperidin-1-yl)-1-(3-chlorophenyl)ethyl]-4-methylcyclohexanol dihydrochloride] returned an inhibition at 1 µM of 43.9%.

For the compound `CN(C)C1CCN(C[C@H](c2cccc(OC(F)(F)F)c2)C2(O)CCCCC2)CC1` [Example 360, 1-{(1S)-2-[4-(dimethylamino)piperidin-1-yl]-1-[3-(trifluoromethoxy)phenyl]ethyl}cyclohexanol dihydrochloride], the inhibition at 1 µM came out at 88%.

The compound `OC1(C(CN2CCC(N3CCCCC3)CC2)c2ccc3ccccc3c2)CCCCC1` (stereo not drawn) [Example 22, 1-[2-(1,4′-bipiperidin-1′-yl)-1-(2-naphthyl)ethyl]cyclohexanol dihydrochloride] came in with an inhibition at 1 µM of 85%.

In turn, `CN(C)C1CCN(CC(c2cccc(Cl)c2)C2(O)CCCCC2)CC1` (stereo not drawn) [Example 36, 1-{1-(3-chlorophenyl)-2-[4-(dimethylamino)piperidin-1-yl]ethyl}cyclohexanol dihydrochloride] yielded an inhibition at 1 µM of 57%.

`CN[C@@H]1CCCN(CC(c2cccc(OC(F)(F)F)c2)C2(O)CCCCC2)C1` (stereo partly drawn) [Example 186, 1-[2-{(3R)-3-(methylamino)piperidin-1-yl]-1-[3-(trifluoromethoxy)phenyl]ethyl}cyclohexanol dihydrochloride] registered an inhibition at 1 µM of 50.4%.

In turn, `CN[C@@H]1CCN(CC(c2ccc(OCc3ccccc3)c(Cl)c2)C2(O)CCCCC2)C1` (stereo partly drawn) [Example 385, 1-{1-[4-(benzyloxy)-3-chlorophenyl]-2-[(3R)-3-(methylamino)pyrrolidin-1-yl]ethyl}cyclohexanol dihydrochloride] came in with an inhibition at 1 µM of 65%.

In turn, `COc1ccc2scc(C(CN3CCC(N)CC3)C3(O)CCCCC3)c2c1` (stereo not drawn) [Example 280, 1-[2-(4-aminopiperidin-1-yl)-1-(5-methoxy-1-benzothien-3-yl)ethyl]cyclohexanol dihydrochloride] gave an inhibition at 1 µM of 18%.

`NC1CCN(CC(c2cccc(C(F)(F)F)c2)C2(O)CCCCC2)CC1` (stereo not drawn) [Example 39, 1-{2-(4-aminopiperidin-1-yl)-1-[3-(trifluoromethyl)phenyl]ethyl}cyclohexanol dihydrochloride] displayed an inhibition at 1 µM of 56%.

`NC1CCN(CC(c2ccc(OCc3ccc4ccccc4c3)c(Cl)c2)C2(O)CCCCC2)CC1` (stereo not drawn) [Example 430, 1-{2-(4-aminopiperidin-1-yl)-1-[3-chloro-4-(2-naphthylmethoxy)phenyl]ethyl}cyclohexanol dihydrochloride] showed an inhibition at 1 µM of 42%.

On to `CN(C)[C@@H]1CCCN(CC(c2ccc(OCc3ccccc3)c(Cl)c2)C2(O)CCCCC2)C1` (stereo partly drawn) [Example 194, 1-{1-[4-(benzyloxy)-3-chlorophenyl]-2-[(3R)-3-(dimethylamino)piperidin-1-yl]ethyl}cyclohexanol dihydrochloride], for which at 1 µM the inhibition was 81.1%.

`N[C@@H]1CCCN(CC(c2cccc(OC(F)(F)F)c2)C2(O)CCCCC2)C1` (stereo partly drawn) [Example 187, 1-[2-{(3R)-3-aminopiperidin-1-yl]-1-[3-(trifluoromethoxy)phenyl]ethyl}cyclohexanol dihydrochloride] displayed an inhibition at 1 µM of 62.3%.

For `CN(C)[C@@H]1CCN(CC(c2cccc(OC(F)(F)F)c2)C2(O)CCCCC2)C1` (stereo partly drawn) [Example 219, 1-{2-[(3R)-3-(dimethylamino)pyrrolidin-1-yl]-1-[3-(trifluoromethoxy)phenyl]ethyl}cyclohexanol dihydrochloride], 1 µM produced 53.1% inhibition.

Regarding `CN[C@@H]1CCN(CC(c2cccc(OC(F)(F)F)c2)C2(O)CCCCC2)C1` (stereo partly drawn) [Example 218, 1-{2-[(3R)-3-(methylamino)pyrrolidin-1-yl]-1-[3-(trifluoromethoxy)phenyl]ethyl}cyclohexanol dihydrochloride], the inhibition at 1 µM worked out at 42%.

Compound `CN[C@H]1CCN(CC(c2cccc(Cl)c2)C2(O)CCCCC2)C1` (stereo partly drawn) [Example 198, 1-1-{1-(3-chlorophenyl)-2-[(3S)-3-(methylamino)pyrrolidin-1-yl]ethyl}cyclohexanol dihydrochloride] returned an inhibition at 1 µM of 77.8%.

The compound `COc1ccc2cc(C(CN3CCC(N(C)C)CC3)C3(O)CCCCC3)ccc2c1` (stereo not drawn) [Example 343, 1-[2-[4-(dimethylamino)piperidin-1-yl]-1-(6-methoxy-2-naphthyl)ethyl]cyclohexanol dihydrochloride] returned an inhibition at 1 µM of 48%.

Consider `CNC1CCN(CC(c2cccc(Cl)c2)C2CCCCC2)CC1` (stereo not drawn) [Example 232, 1-[2-(3-chlorophenyl)-2-cyclohexylethyl]-N-methylpiperidin-4-amine dihydrochloride], for which at 1 µM the inhibition was 79.1%.

Regarding `CN(C)[C@H]1CCN(CC(c2ccc3ccccc3c2)C2(O)CCCCC2)C1` (stereo partly drawn) [Example 205, 1-[2-[(3S)-3-(dimethylamino)pyrrolidin-1-yl]-1-(2-naphthyl)ethyl]cyclohexanol dihydrochloride], at 1 µM the inhibition was 39.5%.

In turn, `OC1CCN(CC(c2cccc(OC(F)(F)F)c2)C2(O)CCCCC2)CC1` (stereo not drawn) [Example 240, 1-{2-(1-hydroxycyclohexyl)-2-[3-(trifluoromethoxy)phenyl]ethyl}piperidin-4-ol hydrochloride] gave an inhibition at 1 µM of 4.4%.

The compound `NC1CCN(CC(c2ccc(OC(F)(F)F)cc2)C2(O)CCCCC2)CC1` (stereo not drawn) [Example 303, 1-{2-(4-aminopiperidin-1-yl)-1-[4-(trifluoromethoxy)phenyl]ethyl}cyclohexanol dihydrochloride] registered an inhibition at 1 µM of 18.7%.

`CN(C)[C@@H]1CCCN(CC(c2cccc(OC(F)(F)F)c2)C2(O)CCCCC2)C1` (stereo partly drawn) [Example 188, 1-{2-[(3R)-3-(dimethylamino)piperidin-1-yl]-1-[3-(trifluoromethoxy)phenyl]ethyl}cyclohexanol dihydrochloride] yielded an inhibition at 1 µM of 17.6%.

In turn, `CN(C)[C@@H]1CCN(CC(c2cccc(C(F)(F)F)c2)C2(O)CCCCC2)C1` (stereo partly drawn) [Example 225, 1-{2-[(3R)-3-(dimethylamino)pyrrolidin-1-yl]-1-[3-(trifluoromethyl)phenyl]ethyl}cyclohexanol dihydrochloride] displayed an inhibition at 1 µM of 84%.

For `NC1CCN(CC(c2ccc(OCc3ccccc3)c(Cl)c2)C2(O)CCCCC2)CC1` (stereo not drawn) [Example 428, 1-{2-(4-aminopiperidin-1-yl)-1-[4-(benzyloxy)-3-chlorophenyl]ethyl}cyclohexanol dihydrochloride], testing at 1 µM gave an inhibition of 92%.

Consider `OC1(C(CN2CCC(N3CCCCC3)CC2)c2cccc(Cl)c2)CCCCC1` (stereo not drawn) [Example 2, 1-[2-(1,4′-bipiperidin-1′-yl)-1-(3-chlorophenyl)ethyl]cyclohexanol dihydrochloride], for which the inhibition at 1 µM was 100%.

Compound `N[C@@H]1CCN(CC(c2cccc(Cl)c2)C2(O)CCCCC2)C1` (stereo partly drawn) [Example 201, 1-[2-[(3R)-3-aminopyrrolidin-1-yl]-1-(3-chlorophenyl)ethyl]cyclohexanol dihydrochloride] registered an inhibition at 1 µM of 37.5%.

Compound `CNC1CCN(C[C@@H](c2cccc(Cl)c2)C2CCCCC2)CC1` (single isomer, unassigned) [Example 356, dihydrochloride] gave an inhibition at 1 µM of 56%.

Consider `CN[C@H]1CCN(CC(c2cccc(OC(F)(F)F)c2)C2(O)CCCCC2)C1` (stereo partly drawn) [Example 215, 1-{2-[(3S)-3-(methylamino)pyrrolidin-1-yl]-1-[3-(trifluoromethoxy)phenyl]ethyl}cyclohexanol dihydrochloride], for which 1 µM produced 30.2% inhibition.

Staying with this experiment, now noted: MDCK-Net6, 30 μM test compound (stated in cell), [3H]NE uptake.
`N[C@@H]1CCN(CC(c2cccc(OC(F)(F)F)c2)C2(O)CCCCC2)C1` (stereo partly drawn) [Example 386, 1-{2-[(3R)-3-aminopyrrolidin-1-yl]-1-[3-(trifluoromethoxy)phenyl]ethyl}cyclohexanol dihydrochloride] displayed an inhibition at 30 µM of 82%.

`CN(C)[C@@H]1CCN(CC(c2ccc(OCc3ccccc3)cc2)C2(O)CCCCC2)C1` (stereo partly drawn) [Example 381, 1-{1-[4-(benzyloxy)phenyl]-2-[(3R)-3-(dimethylamino)pyrrolidin-1-yl]ethyl}cyclohexanol dihydrochloride] had an inhibition at 30 µM of 95%.

`N[C@@H]1CCN(CC(c2cccc3ccccc23)C2(O)CCCCC2)C1` (stereo partly drawn) [Example 377, 1-[2-[(3R)-3-aminopyrrolidin-1-yl]-1-(1-naphthyl)ethyl]cyclohexanol dihydrochloride] yielded an inhibition at 30 µM of 82%.

The experiment is the same for the next values; noted with them: [3H]NE uptake, test range 1 to 10,000 nM.
Take `CN(C)C1CCN(C[C@H](c2cccc(OC(F)(F)F)c2)C2(O)CCCCC2)CC1` [Example 360, 1-{(1S)-2-[4-(dimethylamino)piperidin-1-yl]-1-[3-(trifluoromethoxy)phenyl]ethyl}cyclohexanol dihydrochloride]: the EC50 (commonly the concentration at which the effect is half-maximal) was found to be 0.22 µM.

The compound `OC1(C(CN2CCC(N3CCCCC3)CC2)c2ccc3ccccc3c2)CCCCC1` (stereo not drawn) [Example 22, 1-[2-(1,4′-bipiperidin-1′-yl)-1-(2-naphthyl)ethyl]cyclohexanol dihydrochloride] registered an EC50 of 0.16 µM.

With `CN(C)C1CCN(CC(c2cccc(Cl)c2)C2(O)CCCCC2)CC1` (stereo not drawn) [Example 36, 1-{1-(3-chlorophenyl)-2-[4-(dimethylamino)piperidin-1-yl]ethyl}cyclohexanol dihydrochloride], a half-maximal response (EC50) required 0.13 µM.

`CN[C@@H]1CCN(CC(c2ccc(OCc3ccccc3)c(Cl)c2)C2(O)CCCCC2)C1` (stereo partly drawn) [Example 385, 1-{1-[4-(benzyloxy)-3-chlorophenyl]-2-[(3R)-3-(methylamino)pyrrolidin-1-yl]ethyl}cyclohexanol dihydrochloride] returned an EC50 of 0.27 µM.

Regarding `NC1CCN(CC(c2ccc(OCc3ccccc3)c(Cl)c2)C2(O)CCCCC2)CC1` (stereo not drawn) [Example 428, 1-{2-(4-aminopiperidin-1-yl)-1-[4-(benzyloxy)-3-chlorophenyl]ethyl}cyclohexanol dihydrochloride], the EC50 is 0.11 µM. Against the preceding compound, the EC50 is about 2.5-fold lower.

As for `N[C@H]1CCN(C[C@@H](c2cccc(Cl)c2)C2(O)CCCCC2)C1` [Example 388, 1-[(1 R)-2-[(3S)-3-aminopyrrolidin-1-yl]-1-(3-chlorophenyl)ethyl]cyclohexanol dihydrochloride], a half-maximal response (EC50) required 0.085 µM.

The compound `OC1(C(CN2CCC(N3CCCCC3)CC2)c2cccc(Cl)c2)CCCCC1` (stereo not drawn) [Example 2, 1-[2-(1,4′-bipiperidin-1′-yl)-1-(3-chlorophenyl)ethyl]cyclohexanol dihydrochloride] gave an EC50 of 0.045 µM.

These data come from patent US7550485B2, “Substituted N-heterocycle derivatives and methods of their use” (Wyeth, priority 2003, dated 2009).
